# From publication PMC8222254, “Self-assembly of an anion receptor with metal-dependent kinase inhibition and potent in vitro anti-cancer properties” (Nature Communications, 2021)
# Where “and” joins values, the source holds several entries; their conditions need not be identical. Equal values may be shown once.
# How the values were obtained:
# Experiment in all cases: Kinase inhibition screen, cell-free 33P ATP assay at 10 μM
# Type in all cases: biochemical
# [1] = biological target: 140 purified human kinases (Homo sapiens, UniProt O75116); details: ROCK 2
# How it was run: (§1)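 Each complex tested in duplicate at 10 μM; cell-free radiometric assay using ^33P ATP on purified enzymes. Hits mapped by HGNC symbol onto the kinome tree.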
# [2] = biological target: 140 purified human kinases (Homo sapiens, UniProt Q86Z02)
# How it was run: as §1
# [3] = biological target: 140 purified human kinases (Homo sapiens, UniProt Q02763)
# How it was run: as §1
# [4] = biological target: T1, 140 purified human kinases (Homo sapiens, UniProt Q8IW41); details: PRAK
# T1 sequence (Q8IW41 1-473): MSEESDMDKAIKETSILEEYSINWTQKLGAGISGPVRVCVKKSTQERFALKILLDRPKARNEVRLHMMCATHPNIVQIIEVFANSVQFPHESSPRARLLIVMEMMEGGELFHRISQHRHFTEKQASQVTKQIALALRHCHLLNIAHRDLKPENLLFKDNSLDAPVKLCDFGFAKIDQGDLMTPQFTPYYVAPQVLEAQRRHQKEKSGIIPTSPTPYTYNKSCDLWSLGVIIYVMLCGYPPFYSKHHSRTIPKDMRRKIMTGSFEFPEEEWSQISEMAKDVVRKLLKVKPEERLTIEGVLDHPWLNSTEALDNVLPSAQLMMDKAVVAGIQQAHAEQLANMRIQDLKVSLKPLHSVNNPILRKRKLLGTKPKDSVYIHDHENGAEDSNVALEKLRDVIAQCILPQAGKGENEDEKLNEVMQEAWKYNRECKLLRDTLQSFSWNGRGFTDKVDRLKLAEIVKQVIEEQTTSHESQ
# How it was run: as §1
# [5] = biological target: T2, 140 purified human kinases (Homo sapiens, UniProt O14920); details: IKKb; for % Activity inhibition Mean / % Activity inhibition Run 1 / % Activity inhibition Run 2 / % Activity remaining Run 1 / % Activity remaining Run 2: 10 µM
# T2 sequence (O14920 1-756): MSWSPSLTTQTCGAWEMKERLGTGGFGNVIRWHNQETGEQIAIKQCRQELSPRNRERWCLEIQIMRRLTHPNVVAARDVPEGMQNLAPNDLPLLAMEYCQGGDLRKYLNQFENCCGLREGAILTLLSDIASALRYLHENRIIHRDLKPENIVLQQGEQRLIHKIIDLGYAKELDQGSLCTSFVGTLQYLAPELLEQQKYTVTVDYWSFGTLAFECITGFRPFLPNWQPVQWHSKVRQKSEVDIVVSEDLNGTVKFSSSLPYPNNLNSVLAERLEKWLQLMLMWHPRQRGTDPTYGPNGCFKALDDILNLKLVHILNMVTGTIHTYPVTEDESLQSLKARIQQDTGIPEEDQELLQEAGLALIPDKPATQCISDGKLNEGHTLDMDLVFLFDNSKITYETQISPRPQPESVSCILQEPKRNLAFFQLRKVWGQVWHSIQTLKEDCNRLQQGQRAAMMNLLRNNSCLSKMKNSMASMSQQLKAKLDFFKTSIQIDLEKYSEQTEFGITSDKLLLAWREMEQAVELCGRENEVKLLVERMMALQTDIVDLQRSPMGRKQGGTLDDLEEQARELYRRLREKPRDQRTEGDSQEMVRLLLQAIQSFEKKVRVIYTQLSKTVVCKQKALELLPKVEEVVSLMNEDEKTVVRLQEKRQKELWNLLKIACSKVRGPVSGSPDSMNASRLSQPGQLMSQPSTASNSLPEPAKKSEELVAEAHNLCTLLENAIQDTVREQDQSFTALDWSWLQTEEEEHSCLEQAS
# How it was run: as §1
# [6] = biological target: T3, 140 purified human kinases (Homo sapiens, UniProt O00418); details: EF2K
# T3 sequence (O00418 1-725): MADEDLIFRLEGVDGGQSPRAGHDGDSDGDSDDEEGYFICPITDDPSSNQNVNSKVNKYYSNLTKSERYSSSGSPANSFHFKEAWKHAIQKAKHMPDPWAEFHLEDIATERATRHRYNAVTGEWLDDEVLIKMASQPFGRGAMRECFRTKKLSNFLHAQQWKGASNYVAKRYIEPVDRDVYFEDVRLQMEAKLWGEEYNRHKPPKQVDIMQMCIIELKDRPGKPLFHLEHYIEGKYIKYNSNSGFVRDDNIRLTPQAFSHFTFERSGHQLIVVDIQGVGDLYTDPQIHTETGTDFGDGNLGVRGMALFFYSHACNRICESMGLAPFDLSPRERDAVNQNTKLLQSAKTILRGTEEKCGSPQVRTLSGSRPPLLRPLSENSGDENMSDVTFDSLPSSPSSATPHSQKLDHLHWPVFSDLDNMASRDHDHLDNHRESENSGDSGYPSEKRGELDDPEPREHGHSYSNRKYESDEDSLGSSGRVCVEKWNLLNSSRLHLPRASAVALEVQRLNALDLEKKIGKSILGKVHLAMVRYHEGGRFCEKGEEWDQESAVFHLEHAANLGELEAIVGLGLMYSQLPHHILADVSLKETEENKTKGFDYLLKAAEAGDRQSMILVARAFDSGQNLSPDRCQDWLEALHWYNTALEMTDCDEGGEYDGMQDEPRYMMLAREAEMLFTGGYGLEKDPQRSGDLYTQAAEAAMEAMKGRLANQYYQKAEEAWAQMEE
# How it was run: as §1
# Sequence of 140 purified human kinases (Homo sapiens, UniProt Q02763) (Q02763 23-1124): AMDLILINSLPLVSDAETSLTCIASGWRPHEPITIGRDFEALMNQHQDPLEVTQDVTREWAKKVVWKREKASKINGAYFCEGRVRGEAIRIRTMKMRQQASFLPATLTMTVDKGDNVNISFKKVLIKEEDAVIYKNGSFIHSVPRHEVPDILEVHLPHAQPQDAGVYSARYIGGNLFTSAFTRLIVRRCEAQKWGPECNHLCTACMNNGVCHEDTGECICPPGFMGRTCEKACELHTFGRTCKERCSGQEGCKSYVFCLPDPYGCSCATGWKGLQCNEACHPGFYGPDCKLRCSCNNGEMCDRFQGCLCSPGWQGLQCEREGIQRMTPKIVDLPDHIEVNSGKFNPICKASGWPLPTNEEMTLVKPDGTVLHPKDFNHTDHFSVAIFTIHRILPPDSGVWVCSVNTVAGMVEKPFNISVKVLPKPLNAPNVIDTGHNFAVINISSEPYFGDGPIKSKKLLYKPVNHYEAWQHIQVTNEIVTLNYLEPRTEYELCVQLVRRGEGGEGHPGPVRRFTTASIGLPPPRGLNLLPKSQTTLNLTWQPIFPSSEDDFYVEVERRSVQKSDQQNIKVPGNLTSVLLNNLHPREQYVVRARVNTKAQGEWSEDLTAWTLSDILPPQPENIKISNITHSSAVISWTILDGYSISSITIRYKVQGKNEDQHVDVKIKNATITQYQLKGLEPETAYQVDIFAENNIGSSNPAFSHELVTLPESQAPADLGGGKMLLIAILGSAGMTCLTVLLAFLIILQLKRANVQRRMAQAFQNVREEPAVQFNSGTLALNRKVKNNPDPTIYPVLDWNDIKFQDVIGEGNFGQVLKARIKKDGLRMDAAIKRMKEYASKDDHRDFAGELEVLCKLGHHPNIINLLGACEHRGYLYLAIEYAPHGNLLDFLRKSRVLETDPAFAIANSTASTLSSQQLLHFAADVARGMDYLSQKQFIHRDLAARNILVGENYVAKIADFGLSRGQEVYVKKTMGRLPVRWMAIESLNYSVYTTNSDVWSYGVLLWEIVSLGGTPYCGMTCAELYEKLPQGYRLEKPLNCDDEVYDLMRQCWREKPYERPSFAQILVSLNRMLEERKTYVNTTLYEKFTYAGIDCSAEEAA
# Sequence of 140 purified human kinases (Homo sapiens, UniProt Q86Z02) (Q86Z02 whole entry): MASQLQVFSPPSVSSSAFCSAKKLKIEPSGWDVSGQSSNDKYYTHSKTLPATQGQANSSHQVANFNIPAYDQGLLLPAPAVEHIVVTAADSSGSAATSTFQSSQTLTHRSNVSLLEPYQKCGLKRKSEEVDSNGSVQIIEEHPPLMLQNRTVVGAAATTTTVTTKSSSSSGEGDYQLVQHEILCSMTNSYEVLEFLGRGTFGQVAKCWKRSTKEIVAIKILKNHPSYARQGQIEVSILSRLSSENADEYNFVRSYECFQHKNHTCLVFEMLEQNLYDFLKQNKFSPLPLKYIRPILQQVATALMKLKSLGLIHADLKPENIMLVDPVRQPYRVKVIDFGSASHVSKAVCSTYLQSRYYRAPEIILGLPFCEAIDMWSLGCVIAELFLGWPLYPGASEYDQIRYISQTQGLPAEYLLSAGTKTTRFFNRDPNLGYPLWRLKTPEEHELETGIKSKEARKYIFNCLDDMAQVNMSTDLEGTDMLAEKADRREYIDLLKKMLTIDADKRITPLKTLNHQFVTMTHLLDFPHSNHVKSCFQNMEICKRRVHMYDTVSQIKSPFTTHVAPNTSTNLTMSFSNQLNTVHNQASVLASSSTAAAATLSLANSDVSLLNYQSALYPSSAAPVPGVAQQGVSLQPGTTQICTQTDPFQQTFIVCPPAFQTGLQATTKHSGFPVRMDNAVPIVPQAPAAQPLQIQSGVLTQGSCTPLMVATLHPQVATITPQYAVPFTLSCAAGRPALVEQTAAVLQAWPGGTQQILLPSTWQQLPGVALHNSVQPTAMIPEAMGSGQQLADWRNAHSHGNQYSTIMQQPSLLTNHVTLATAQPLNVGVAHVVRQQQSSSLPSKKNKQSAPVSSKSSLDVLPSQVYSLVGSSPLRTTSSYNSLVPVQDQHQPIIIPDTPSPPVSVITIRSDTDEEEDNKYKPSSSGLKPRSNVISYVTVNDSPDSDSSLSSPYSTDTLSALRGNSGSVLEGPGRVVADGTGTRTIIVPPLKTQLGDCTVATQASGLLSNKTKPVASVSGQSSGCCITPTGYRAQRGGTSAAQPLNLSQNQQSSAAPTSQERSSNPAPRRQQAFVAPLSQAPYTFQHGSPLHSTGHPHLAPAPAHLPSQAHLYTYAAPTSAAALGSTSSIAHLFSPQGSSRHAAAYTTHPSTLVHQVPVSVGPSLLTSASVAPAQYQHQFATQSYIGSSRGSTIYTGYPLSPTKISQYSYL
# Sequence of 140 purified human kinases (Homo sapiens, UniProt O75116) (O75116 whole entry): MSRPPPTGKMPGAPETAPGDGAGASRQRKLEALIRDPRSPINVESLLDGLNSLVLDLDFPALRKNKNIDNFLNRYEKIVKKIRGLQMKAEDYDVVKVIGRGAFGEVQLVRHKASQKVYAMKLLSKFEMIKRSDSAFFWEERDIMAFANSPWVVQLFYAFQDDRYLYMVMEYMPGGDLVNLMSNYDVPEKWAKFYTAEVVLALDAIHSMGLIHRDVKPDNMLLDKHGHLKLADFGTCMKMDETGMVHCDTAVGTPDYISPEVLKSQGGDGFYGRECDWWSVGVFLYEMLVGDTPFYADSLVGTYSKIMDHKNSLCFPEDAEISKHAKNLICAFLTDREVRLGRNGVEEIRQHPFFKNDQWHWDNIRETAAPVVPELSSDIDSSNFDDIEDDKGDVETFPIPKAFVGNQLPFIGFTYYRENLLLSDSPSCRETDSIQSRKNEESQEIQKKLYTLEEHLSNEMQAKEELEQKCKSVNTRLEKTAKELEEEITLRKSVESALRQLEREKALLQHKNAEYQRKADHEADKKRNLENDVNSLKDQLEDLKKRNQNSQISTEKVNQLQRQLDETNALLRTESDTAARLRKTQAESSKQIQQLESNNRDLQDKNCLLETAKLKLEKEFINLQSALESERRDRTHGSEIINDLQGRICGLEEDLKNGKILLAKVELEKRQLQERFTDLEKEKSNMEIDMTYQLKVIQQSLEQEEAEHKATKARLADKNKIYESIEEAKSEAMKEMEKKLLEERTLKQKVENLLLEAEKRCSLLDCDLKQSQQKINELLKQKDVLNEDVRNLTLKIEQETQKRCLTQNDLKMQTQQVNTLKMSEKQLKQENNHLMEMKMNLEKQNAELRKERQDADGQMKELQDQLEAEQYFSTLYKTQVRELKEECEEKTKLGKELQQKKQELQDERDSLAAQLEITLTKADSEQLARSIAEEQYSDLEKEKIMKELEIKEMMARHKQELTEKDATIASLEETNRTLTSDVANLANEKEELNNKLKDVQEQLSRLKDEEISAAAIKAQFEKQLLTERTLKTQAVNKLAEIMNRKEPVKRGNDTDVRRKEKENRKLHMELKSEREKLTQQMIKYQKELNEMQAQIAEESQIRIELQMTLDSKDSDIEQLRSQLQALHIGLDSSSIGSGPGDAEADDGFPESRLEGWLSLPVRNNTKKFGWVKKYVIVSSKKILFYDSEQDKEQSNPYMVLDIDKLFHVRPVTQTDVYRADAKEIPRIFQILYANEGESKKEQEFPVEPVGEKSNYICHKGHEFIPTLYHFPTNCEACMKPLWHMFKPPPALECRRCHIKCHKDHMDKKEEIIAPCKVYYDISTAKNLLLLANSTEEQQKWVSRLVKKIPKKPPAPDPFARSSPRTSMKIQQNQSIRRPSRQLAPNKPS
structure (smiles),measurement,setting,value
[Cu+2].[Cu+2].[Cu+2].c1ccc(-c2csc(NCCN(CCNc3nc(-c4ccccn4)cs3)CCNc3nc(-c4ccccn4)cs3)n2)nc1.c1ccc(-c2csc(NCCN(CCNc3nc(-c4ccccn4)cs3)CCNc3nc(-c4ccccn4)cs3)n2)nc1 [[L2Cu3]6+],% Inhibition Run 1,[1],83.5%
same,% Inhibition Run 2,[1],77.5%
same,"% Inhibition, Mean",[1],81%
same,mean % activity,[1],20%
same,% Inhibition Run 1,[2]; HIPK1,90.8%
same,% Inhibition Run 2,[2]; HIPK1,84.1%
same,"% Inhibition, Mean",[2]; HIPK1,87%
same,mean % activity,[2]; HIPK1,13%
same,% activity,"[2]; HIPK1, Run 1",9.2%
same,% activity,"[2]; HIPK1, Run 2",15.9%
same,% Inhibition Run 1,[3]; TIE2,73.2%
same,% Inhibition Run 2,[3]; TIE2,55%
same,"% Inhibition, Mean",[3]; TIE2,64%
same,mean % activity,[3]; TIE2,36%
same,% activity,"[3]; TIE2, Run 1",26.8%
same,% activity,"[3]; TIE2, Run 2",45%
same,% Inhibition Run 1,[4],79.7%
same,% Inhibition Run 2,[4],79.1%
same,"% Inhibition, Mean",[4],79%
same,mean % activity,[4],21%
same,% activity,[4]; Run 1,20.3%
same,% activity,[4]; Run 2,20.9%
same,% Inhibition Run 1,[5],92.1%
same,% Inhibition Run 2,[5],92.5%
same,"% Inhibition, Mean",[5],92%
same,mean % activity,[5],8%
same,% activity,[5]; Run 1,7.9%
same,% activity,[5]; Run 2,7.5%
same,% Activity inhibition Mean,[5],92.3%
same,% Activity inhibition Run 1,[5],92.1%
same,% Activity inhibition Run 2,[5],92.5%
same,% Activity remaining Run 1,[5],7.90%
same,% Activity remaining Run 2,[5],7.50%
same,% Inhibition Run 1,[6],60.6%
same,% Inhibition Run 2,[6],65.9%
same,"% Inhibition, Mean",[6],63%
same,mean % activity,[6],37%
same,% activity,[6]; Run 1,39.4%
same,% activity,[6]; Run 2,34.1%
CC(=O)[O-].CC(=O)[O-].CC(=O)[O-].CC(=O)[O-].CC(=O)[O-].CC(=O)[O-].[Zn+2].[Zn+2].[Zn+2].c1ccc(-c2csc(NCCN(CCNc3nc(-c4ccccn4)cs3)CCNc3nc(-c4ccccn4)cs3)n2)nc1.c1ccc(-c2csc(NCCN(CCNc3nc(-c4ccccn4)cs3)CCNc3nc(-c4ccccn4)cs3)n2)nc1 [[L2Zn3]6+],"% Activation, Mean value",[1],17%
same,"% Inhibition, Mean",[1],-17%
same,"% Inhibition, Run 1 / Run 2",[1],-20% and -14%
same,mean % activity,[1],117%
same,% Activity Run 1,[1]; 10 µM,120.0%
same,% Activity Run 2,[1]; 10 µM,114.0%
same,% activity,[1]; duplicate runs,120% and 114%
same,"% Inhibition, Mean",[2]; HIPK1,14%
same,mean % activity,[2]; HIPK1,86%
same,% activity,"[2]; HIPK1, duplicate runs",92% and 81%
same,"% Inhibition, Mean",[3]; TIE2,85%
same,"% Inhibition, Run 1 / Run 2",[3]; TIE2,92% and 78%
same,mean % activity,[3]; TIE2,15%
same,% Activity inhibition Mean,"[3]; TIE2, 10 µM",84.5%
same,% Activity inhibition Run 1,"[3]; TIE2, 10 µM",92%
same,% Activity inhibition Run 2,"[3]; TIE2, 10 µM",77%
same,% Activity remaining Run 1,"[3]; TIE2, 10 µM",8%
same,% Activity remaining Run 2,"[3]; TIE2, 10 µM",23%
same,"% Inhibition, Mean",[4],81%
same,"% Inhibition, Run 1 / Run 2",[4],83% and 79%
same,mean % activity,[4],19%
same,% Activity inhibition Mean,[4]; 10 µM,81.0%
same,% Activity inhibition Run 1,[4]; 10 µM,83%
same,% Activity inhibition Run 2,[4]; 10 µM,79%
same,% Activity remaining Run 1,[4]; 10 µM,17%
same,% Activity remaining Run 2,[4]; 10 µM,21%
same,% activity,[4]; duplicate runs,17% and 21%
same,"% Inhibition, Mean",[5],92%
same,"% Inhibition, Run 1 / Run 2",[5],94% and 90%
same,mean % activity,[5],8%
same,% Activity inhibition Mean,[5],92.0%
same,% Activity inhibition Run 1,[5],94%
same,% Activity inhibition Run 2,[5],90%
same,% Activity remaining Run 1,[5],6%
same,% Activity remaining Run 2,[5],10%
same,% activity,[5]; duplicate runs,6% and 10%
same,"% Activation, Mean value",[6],0.8%
same,"% Inhibition, Mean",[6],-0.8%
same,"% Inhibition, Run 1 / Run 2",[6],2% and -3.6%
same,mean % activity,[6],101%
same,% activity,[6]; duplicate runs,98% and 104%
